Laboratory results: patent US20210388029A1, “CYTOPLASMIC TRANSDUCTION PEPTIDE AND INTRACELLULAR MESSENGER COMPRISING SAME” (priority 2016, published 2021)
No end group written: not given here.

Test system: HeLa cells
Test: Cell membrane penetration activity in HeLa cells, immunostaining / confocal laser scanning microscope
Assay type: cell-based
Details: 3 hours; for fluorescence signal versus concentration (zinc finger domain peptides): FITC-conjugated
Experimental: HeLa cells were seeded into a 12-well plate having glass at a density of 1×10^5 cells/well, and then cultured for 24 hours to attach the cells to the glass. Then, cells were treated with FITC-NC peptides at […] concentration for 3 hours. After 3 hours, the cells were washed three times with PBS, the cells were fixed with 3.7% formaldehyde for 20 minutes, and the cells were treated with PBS containing 0.2% Triton X-100 to increase the cell membrane penetration activity. Then, the cells were blocked with 3% BSA for 1 hour, reacted with lamin A/C antibody (Sigma-Aldrich, USA) at room temperature for 2 hours, and washed three times with PBS. Next, the cells were treated with Cy3-conjugated secondary antibody (Jackson ImmunoResearch, USA) at room temperature for 1 hour, washed twice with PBS, and then stained with DAPI (4′,6-diamidino-2-phenylindol) for 10 minutes. The HeLa cell-attached glass was removed and placed on a slide glass.
The HeLa cells were seeded into a 12-well plate containing glass at a density of 1×10^5 cells/well, and then cultured for 24 hours to attach the cells to the glass. Thereafter, the FITC-NC peptide, the trans-activating transcriptional activator peptide (FITC-Tat peptide), the FITC-MA11 peptide, the protein transduction domain-ys peptide (FITC-PTD-ys peptide), the translocation motif peptide (FITC-TLM peptide) and FITC-TD1 peptide were treated with the HeLa cells for 3 hours. After 3 hours, the cells were washed 3 times with PBS and the cells were fixed with 3.7% formaldehyde for 20 minutes. The cells were treated with PBS containing 0.2% Triton X-100 to increase cell membrane penetration activity and blocked with 3% BSA for 1 hour. Then, the cells were reacted with tubulin antibody (Santa Cruz Biotechnology, USA) at room temperature for 2 hours and washed three times with PBS. The cells were treated with Cy3 secondary antibody. They were reacted at room temperature for 1 hour, washed twice with PBS, and stained with DAPI for 10 minutes. The HeLa cell-attached glass was removed and placed on a slide glass.
Further, in order to identify a change in cell membrane penetration activity by FITC-NC peptide, the HeLa cells were treated with hexapeptide, FITC-hexapeptide, FITC-NC-hexapeptide, FITC-13NC35 peptide and FITC-29NC50 peptide for 3 hours in the same manner as above and observed with a confocal laser scanning microscope. Meanwhile, the amino acid sequences of the hexapeptide, PTD-ys peptide, TLM peptide, TD1 peptide, NC-hexapeptide, 13NC35 peptide and 29NC50 peptide used are shown in Table 5 below.

Substance | fluorescence signal versus concentration (zinc finger domain peptides) | further results
13NC35 peptide: 13th to 35th amino acid of HIV-NC with first zinc finger domain, SEQ ID NO: 10 VKCFNCGKEGHTARNCRAPRKKG (cysteine pairing not given here; also: FITC label, place not given here) | fluorescence signals were increased in proportion to the concentration | 
29NC50 peptide: 29th to 50th amino acid of HIV-NC with second zinc finger domain, SEQ ID NO: 11 RAPRKKGCWKCGKEGHQMKDCT (cysteine pairing not given here; also: FITC label, place not given here) | fluorescence signals were increased in proportion to the concentration | 
FITC-TLM peptide: translocation motif peptide, SEQ ID NO: 7 PLSSIFSRIGDP, FITC-conjugated [reference compound] |  | cell membrane penetration (confocal) (20 μM): hardly penetrable to the cell membrane
hexapeptide: polypeptide cargo, SEQ ID NO: 5 EEMQRR (also: FITC label, place not given here) |  | cell membrane penetration of polypeptide cargo (confocal) (FITC-labelled): did not penetrate the cell membrane
